Measurements from US9714222B2, “Methods and compositions for treating Ewings sarcoma family of tumors” (GEORGETOWN UNIVERSITY, priority 2012, dated 2017).

Columns and labels:
[1] = molecular target: T1, EWS-FLI1/RHA interaction (Homo sapiens, UniProt Q01543+Q01844); test: Immunoblot of co-precipitated protein lysates from treated TC32 cells; type: cell-based; conditions: FIG. 4
T1 construct: endogenous in cells; host or cells: TC32 cells
T1 sequence (Q01844+Q01543 with tags, fused parts or gaps): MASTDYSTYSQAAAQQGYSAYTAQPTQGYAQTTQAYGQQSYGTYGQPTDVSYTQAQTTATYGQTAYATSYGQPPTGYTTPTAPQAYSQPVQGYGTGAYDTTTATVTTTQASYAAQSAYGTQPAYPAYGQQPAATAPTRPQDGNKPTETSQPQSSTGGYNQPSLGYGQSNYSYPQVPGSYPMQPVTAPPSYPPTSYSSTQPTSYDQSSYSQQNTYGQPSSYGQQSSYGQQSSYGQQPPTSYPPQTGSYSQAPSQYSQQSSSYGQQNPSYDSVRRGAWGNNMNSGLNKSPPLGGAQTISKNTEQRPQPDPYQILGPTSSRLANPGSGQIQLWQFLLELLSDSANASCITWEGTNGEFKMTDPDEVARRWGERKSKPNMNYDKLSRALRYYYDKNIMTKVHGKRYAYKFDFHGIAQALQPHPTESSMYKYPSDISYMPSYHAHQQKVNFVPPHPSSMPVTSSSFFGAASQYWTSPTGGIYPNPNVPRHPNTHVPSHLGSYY
Source text: The disruption of the interaction of RHA with EWS-FLI1 presents an avenue for the development of a class of small molecules as potential therapeutics against the Ewing's family sarcoma tumors.

[2] = test system: EWS-FLI1 and ESFT cells; conditions: cited from earlier work
[3] = test system: TC71 (human ESFT cell line); test: IC50 activity in TC71 cells; type: cell-based
Description: Compounds provided in Table 2 were prepared using methods similar to those described herein. The structures and IC50 activities of particular compounds in PANC1 (a human pancreatic carcinoma), TC32 (human ESFT cell line), and TC71 (human ESFT cell line) cells are summarized in Table 2.
Growth inhibition of ESFT cells was measured for various concentrations of particular compounds.

| SMILES | disruption of interaction of RHA with EWS-FLI1 ([1]; co-precipitation) | effect on level of EWS-FLI1 or RHA ([1]; immunoblot) | caspase-3 activity [2] | functional inhibition of EWS-FLI1 and ESFT cells [2] | potency compared with YK-4-279 [3] |
| --- | --- | --- | --- | --- | --- |
| COc1ccc(C(=O)CC2(O)C(=O)Nc3c(Cl)ccc(Cl)c32)cc1 (racemic) [YK-4-279] | did disrupt their interactions | did not directly affect the level of EWS-FLI1 or RHA | increase | functionally inhibit EWS-FLI1 and ESFT cells |  |
| CN(C)c1ccc(C(=O)CC2(O)C(=O)Nc3c(Cl)ccc(Cl)c32)cc1 (centres unmarked) [PT-1-17] |  |  |  |  | appeared to be more potent |
